In brackets after ≈: the same amount, converted by molar mass. Activity calls are given as the source filed them. No cut-off for these calls is given here.
Columns and labels:
[1] = molecular target: T1, Tyrosine-protein kinase JAK2 (Homo sapiens, UniProt O60674); assay: Inhibition of JAK2 after 60 min
[2] = molecular target: T2, Tyrosine-protein kinase JAK3 (Homo sapiens, UniProt P52333); assay: Inhibition of JAK3 after 60 min
T2 sequence (P52333 whole entry): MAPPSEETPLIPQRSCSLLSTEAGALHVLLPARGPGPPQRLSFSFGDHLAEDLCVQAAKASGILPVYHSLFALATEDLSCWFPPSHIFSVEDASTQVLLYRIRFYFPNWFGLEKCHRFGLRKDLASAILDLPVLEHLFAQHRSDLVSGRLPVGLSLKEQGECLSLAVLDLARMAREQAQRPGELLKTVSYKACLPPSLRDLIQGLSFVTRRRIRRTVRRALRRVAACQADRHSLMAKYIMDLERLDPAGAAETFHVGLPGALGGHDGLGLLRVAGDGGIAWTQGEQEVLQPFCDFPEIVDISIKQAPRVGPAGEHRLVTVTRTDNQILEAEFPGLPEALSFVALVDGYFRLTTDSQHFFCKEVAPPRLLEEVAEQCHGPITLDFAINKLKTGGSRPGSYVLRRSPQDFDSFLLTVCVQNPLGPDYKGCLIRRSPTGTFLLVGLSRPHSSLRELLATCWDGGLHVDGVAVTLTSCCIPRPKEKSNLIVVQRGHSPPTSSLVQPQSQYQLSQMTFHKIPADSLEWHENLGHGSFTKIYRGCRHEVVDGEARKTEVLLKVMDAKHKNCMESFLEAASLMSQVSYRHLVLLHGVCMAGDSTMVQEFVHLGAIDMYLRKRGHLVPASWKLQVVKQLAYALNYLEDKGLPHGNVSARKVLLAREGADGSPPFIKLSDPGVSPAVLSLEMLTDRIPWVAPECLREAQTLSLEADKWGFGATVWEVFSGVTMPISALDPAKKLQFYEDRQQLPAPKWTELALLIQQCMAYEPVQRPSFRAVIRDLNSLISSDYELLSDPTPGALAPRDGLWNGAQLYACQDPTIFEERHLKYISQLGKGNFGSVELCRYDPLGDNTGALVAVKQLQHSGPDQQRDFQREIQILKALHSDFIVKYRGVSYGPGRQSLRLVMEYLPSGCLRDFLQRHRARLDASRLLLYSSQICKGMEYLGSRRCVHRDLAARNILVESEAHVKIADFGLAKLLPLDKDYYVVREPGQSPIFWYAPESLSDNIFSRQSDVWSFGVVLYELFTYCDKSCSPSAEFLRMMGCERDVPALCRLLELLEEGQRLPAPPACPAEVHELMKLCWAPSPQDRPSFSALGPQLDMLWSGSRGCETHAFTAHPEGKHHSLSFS

[3] = molecular target: T1, Tyrosine-protein kinase JAK2; assay: Inhibition of TEL-fused JAK2-induced proliferation of mouse BA/F3 cells; type: cell-based; conditions: BaF3
[4] = molecular target: T3, Tyrosine-protein kinase JAK3 (Homo sapiens) (UniProt P52333); assay: Inhibition of TEL-fused JAK3-induced proliferative activity against mouse BA/F3 cells; type: cell-based; conditions: BaF3
T3 sequence (whole entry): T2 sequence (P52333 whole entry)

[5] = Clearance in dog; type: ADME, organism-based, Canis lupus familiaris; conditions: in vivo
[6] = Half life in dog; type: ADME, organism-based, Canis lupus familiaris; conditions: in vivo
[7] = Oral bioavailability in dog; type: ADME, organism-based, Canis lupus familiaris; conditions: in vivo
[8] = Aqueous solubility of compound; type: physicochemical
[9] = system: Mus musculus; assay: Inhibition of STAT5 phosphorylation in NCr mouse tansplanted with TEL-JAK2 expressing mouse BA/F3 cells at 10 mg/kg, po upto 2 hrs; type: functional, organism-based; set-up: dose 10 mg/kg; conditions: BaF3
[10] = system: Mus musculus; assay: Inhibition of STAT5 phosphorylation in NCr mouse tansplanted with TEL-JAK2 expressing mouse BA/F3 cells at 10 mg/kg, po measured at 6 hrs; type: functional; conditions: BaF3, 6 h
[11] = system: Mus musculus; assay: Inhibition of STAT5 phosphorylation in NCr mouse tansplanted with TEL-JAK2 expressing mouse BA/F3 cells at 5 mg/kg, po upto 2 hrs; type: functional, organism-based; set-up: dose 5 mg/kg; conditions: BaF3
[12] = system: Mus musculus; assay: Inhibition of STAT5 phosphorylation in NCr mouse tansplanted with TEL-JAK2 expressing mouse BA/F3 cells at 5 mg/kg, po measured at 6 hrs; type: functional; conditions: BaF3, 6 h
[13] = system: Mus musculus; assay: Inhibition of STAT5 phosphorylation in NCr mouse tansplanted with TEL-JAK2 expressing mouse BA/F3 cells at 2.5 mg/kg, po upto 2 hrs; type: functional, organism-based; set-up: dose 2.5 mg/kg; conditions: BaF3
[14] = Plasma concentration in NCr mouse tansplanted with TEL-JAK2 expressing mouse BA/F3 cells at 10 mg/kg, po after 2 hrs; type: ADME, organism-based, BaF3; set-up: dose 10 mg/kg, route oral
[15] = Plasma concentration in NCr mouse tansplanted with TEL-JAK2 expressing mouse BA/F3 cells at 10 mg/kg, po after 6 hrs; type: ADME, organism-based, BaF3; set-up: dose 10 mg/kg, route oral
[16] = Fraction unbound in human plasma; type: ADME, cell-free
[17] = Free drug level in plasma of NCr mouse tansplanted with TEL-JAK2 expressing mouse BA/F3 cells at 10 mg/kg, po after 6 hrs; type: ADME, organism-based, BaF3; set-up: dose 10 mg/kg, route oral; conditions: in vivo
[18] = Intrinsic clearance in Han Wistar rat microsomes at 10 mg/kg, po and 3 mg/kg, iv; type: ADME, Microsome
[19] = Clearance in Han Wistar rat at 10 mg/kg, po and 3 mg/kg, iv; type: ADME, organism-based; conditions: in vivo
[20] = Half life in Han Wistar rat at 10 mg/kg, po and 3 mg/kg, iv; type: ADME, organism-based; conditions: in vivo
[21] = Volume of distribution at steady state in Han Wistar rat at 10 mg/kg, po and 3 mg/kg, iv; type: ADME, organism-based; conditions: in vivo, read-out: Vdss
[22] = Oral bioavailability in Han Wistar rat at 10 mg/kg; type: ADME, organism-based; conditions: in vivo
[23] = molecular target: T1, Tyrosine-protein kinase JAK2; assay: Inhibition of human JAK2
[24] = molecular target: T4, High affinity nerve growth factor receptor (Homo sapiens, UniProt P04629); assay: Inhibition of human TRKA
Target sequence in this assay (P04629 whole entry): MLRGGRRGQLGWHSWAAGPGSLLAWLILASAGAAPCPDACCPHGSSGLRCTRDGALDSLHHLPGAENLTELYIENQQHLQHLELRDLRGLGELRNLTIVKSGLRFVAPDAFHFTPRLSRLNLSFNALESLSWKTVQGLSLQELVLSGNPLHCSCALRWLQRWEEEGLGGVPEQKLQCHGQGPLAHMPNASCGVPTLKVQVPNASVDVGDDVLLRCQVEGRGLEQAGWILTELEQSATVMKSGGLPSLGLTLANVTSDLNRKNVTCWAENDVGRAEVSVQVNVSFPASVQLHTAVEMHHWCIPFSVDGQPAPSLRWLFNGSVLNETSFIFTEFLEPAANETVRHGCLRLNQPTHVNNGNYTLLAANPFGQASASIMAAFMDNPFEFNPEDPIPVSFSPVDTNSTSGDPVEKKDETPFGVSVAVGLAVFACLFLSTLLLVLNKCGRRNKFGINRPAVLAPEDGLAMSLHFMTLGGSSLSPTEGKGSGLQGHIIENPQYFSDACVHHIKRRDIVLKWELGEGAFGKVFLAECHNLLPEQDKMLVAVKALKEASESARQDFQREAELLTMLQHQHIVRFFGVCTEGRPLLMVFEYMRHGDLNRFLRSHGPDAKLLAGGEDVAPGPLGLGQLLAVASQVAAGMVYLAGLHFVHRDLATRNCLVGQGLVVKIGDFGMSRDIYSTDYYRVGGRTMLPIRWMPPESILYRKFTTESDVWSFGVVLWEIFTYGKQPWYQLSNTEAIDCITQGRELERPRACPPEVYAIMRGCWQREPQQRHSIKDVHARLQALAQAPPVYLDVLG

[25] = molecular target: T2, Tyrosine-protein kinase JAK3; assay: Inhibition of human JAK3
[26] = molecular target: Receptor-type tyrosine-protein kinase FLT3 (Homo sapiens, UniProt P36888, D835Y); assay: Inhibition of human FLT3 D835Y mutant
[27] = molecular target: Tyrosine-protein kinase Lck (Homo sapiens, UniProt P06239); assay: Inhibition of human Lck
Tyrosine-protein kinase Lck, sequence (P06239 whole entry): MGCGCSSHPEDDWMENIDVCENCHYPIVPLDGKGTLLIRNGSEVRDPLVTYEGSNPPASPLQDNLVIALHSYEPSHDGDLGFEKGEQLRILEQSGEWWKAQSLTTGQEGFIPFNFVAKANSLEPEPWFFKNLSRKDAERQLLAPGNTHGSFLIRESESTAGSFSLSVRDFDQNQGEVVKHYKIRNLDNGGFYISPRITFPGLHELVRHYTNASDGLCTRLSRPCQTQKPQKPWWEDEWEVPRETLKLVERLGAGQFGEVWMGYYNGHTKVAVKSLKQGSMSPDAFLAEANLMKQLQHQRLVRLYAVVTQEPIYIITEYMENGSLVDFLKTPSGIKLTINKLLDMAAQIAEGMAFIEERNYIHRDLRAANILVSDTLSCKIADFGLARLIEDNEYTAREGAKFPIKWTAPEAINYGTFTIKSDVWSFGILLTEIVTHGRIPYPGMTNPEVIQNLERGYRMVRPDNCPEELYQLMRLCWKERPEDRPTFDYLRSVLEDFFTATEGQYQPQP

[28] = molecular target: T5, Muscle, skeletal receptor tyrosine-protein kinase (Homo sapiens, UniProt O15146); assay: Inhibition of human MuSk
T5 sequence (O15146 whole entry): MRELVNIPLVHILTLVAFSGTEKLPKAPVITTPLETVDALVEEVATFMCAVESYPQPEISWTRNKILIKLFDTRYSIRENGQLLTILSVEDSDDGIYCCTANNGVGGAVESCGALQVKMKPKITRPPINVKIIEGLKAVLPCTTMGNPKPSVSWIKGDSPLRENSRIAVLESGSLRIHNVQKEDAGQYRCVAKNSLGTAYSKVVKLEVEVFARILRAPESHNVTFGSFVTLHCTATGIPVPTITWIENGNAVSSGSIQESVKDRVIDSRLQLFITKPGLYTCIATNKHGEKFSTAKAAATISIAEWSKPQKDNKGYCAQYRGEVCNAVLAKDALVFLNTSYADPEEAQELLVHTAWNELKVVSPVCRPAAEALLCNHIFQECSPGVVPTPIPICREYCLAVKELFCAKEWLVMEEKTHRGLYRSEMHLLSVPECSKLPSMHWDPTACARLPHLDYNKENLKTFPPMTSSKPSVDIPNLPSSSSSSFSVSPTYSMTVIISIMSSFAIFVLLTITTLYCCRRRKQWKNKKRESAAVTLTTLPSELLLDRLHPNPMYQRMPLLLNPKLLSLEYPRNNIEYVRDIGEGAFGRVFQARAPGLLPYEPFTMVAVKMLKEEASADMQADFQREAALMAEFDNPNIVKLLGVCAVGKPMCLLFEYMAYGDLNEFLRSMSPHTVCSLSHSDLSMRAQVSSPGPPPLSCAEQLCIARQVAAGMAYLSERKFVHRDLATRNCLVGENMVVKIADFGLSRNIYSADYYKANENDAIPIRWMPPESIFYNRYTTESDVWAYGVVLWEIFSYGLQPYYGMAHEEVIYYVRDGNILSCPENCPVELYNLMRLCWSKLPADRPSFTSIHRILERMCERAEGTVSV

[29] = molecular target: T6, Ephrin type-B receptor 2 (Homo sapiens, UniProt P29323); assay: Inhibition of human EphB2
T6 sequence (P29323 whole entry): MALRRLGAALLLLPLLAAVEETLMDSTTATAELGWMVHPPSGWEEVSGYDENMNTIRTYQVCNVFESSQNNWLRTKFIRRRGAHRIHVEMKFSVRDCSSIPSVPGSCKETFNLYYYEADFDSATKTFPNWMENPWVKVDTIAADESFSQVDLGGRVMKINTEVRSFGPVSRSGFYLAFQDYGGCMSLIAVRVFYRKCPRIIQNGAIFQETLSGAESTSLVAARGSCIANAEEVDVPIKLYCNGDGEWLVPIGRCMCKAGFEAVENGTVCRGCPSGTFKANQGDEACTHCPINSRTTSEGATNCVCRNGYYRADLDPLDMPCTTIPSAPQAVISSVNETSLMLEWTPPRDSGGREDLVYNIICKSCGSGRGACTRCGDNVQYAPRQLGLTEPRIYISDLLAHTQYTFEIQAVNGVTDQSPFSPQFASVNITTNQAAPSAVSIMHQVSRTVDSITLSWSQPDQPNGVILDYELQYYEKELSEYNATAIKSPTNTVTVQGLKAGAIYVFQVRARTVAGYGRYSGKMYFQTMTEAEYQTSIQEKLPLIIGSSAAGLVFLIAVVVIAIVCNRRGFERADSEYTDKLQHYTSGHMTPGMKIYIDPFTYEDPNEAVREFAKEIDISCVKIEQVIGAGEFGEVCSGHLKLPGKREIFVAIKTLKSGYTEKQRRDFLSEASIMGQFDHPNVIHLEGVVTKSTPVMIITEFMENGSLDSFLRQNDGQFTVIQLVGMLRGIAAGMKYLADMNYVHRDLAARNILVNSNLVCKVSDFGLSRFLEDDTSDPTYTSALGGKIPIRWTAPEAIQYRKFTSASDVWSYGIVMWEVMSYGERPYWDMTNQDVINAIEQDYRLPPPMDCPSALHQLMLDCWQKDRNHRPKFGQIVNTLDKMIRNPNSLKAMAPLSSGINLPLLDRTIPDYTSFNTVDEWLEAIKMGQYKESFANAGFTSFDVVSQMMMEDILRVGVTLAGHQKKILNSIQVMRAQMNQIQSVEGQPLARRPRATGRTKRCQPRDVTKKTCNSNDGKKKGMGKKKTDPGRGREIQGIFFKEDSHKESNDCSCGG

[30] = molecular target: T4, High affinity nerve growth factor receptor; assay: Inhibition of human truncated TrkA in human MCF10a cells by time-resolved fluorimetry; type: cell-based
Target sequence in this assay (P04629 33-796 limits assumed): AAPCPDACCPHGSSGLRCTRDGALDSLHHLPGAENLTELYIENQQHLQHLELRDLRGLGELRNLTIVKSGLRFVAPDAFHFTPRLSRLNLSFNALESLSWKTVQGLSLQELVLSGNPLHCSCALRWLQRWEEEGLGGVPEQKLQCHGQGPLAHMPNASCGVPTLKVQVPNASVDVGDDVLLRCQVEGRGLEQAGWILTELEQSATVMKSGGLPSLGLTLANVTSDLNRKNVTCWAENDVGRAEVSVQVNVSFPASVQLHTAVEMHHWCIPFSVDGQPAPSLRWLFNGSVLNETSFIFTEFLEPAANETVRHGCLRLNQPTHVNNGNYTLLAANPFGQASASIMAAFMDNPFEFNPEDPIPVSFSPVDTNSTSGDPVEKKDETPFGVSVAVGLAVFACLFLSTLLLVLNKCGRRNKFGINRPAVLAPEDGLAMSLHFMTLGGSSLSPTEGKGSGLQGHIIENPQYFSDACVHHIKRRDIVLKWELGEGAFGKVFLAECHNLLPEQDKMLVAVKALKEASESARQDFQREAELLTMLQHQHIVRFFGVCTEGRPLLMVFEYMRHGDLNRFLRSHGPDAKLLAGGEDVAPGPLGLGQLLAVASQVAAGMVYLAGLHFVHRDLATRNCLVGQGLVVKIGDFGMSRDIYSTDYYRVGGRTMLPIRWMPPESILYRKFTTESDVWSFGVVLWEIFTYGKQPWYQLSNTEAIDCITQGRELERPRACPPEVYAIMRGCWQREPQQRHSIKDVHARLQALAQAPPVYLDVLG

[31] = Growth inhibition of human SET2 cells expressing JAK2 V617F mutant after 48 hrs by alamar blue assay; type: functional; conditions: SET-2, 48 h

T1 sequence (O60674 whole entry): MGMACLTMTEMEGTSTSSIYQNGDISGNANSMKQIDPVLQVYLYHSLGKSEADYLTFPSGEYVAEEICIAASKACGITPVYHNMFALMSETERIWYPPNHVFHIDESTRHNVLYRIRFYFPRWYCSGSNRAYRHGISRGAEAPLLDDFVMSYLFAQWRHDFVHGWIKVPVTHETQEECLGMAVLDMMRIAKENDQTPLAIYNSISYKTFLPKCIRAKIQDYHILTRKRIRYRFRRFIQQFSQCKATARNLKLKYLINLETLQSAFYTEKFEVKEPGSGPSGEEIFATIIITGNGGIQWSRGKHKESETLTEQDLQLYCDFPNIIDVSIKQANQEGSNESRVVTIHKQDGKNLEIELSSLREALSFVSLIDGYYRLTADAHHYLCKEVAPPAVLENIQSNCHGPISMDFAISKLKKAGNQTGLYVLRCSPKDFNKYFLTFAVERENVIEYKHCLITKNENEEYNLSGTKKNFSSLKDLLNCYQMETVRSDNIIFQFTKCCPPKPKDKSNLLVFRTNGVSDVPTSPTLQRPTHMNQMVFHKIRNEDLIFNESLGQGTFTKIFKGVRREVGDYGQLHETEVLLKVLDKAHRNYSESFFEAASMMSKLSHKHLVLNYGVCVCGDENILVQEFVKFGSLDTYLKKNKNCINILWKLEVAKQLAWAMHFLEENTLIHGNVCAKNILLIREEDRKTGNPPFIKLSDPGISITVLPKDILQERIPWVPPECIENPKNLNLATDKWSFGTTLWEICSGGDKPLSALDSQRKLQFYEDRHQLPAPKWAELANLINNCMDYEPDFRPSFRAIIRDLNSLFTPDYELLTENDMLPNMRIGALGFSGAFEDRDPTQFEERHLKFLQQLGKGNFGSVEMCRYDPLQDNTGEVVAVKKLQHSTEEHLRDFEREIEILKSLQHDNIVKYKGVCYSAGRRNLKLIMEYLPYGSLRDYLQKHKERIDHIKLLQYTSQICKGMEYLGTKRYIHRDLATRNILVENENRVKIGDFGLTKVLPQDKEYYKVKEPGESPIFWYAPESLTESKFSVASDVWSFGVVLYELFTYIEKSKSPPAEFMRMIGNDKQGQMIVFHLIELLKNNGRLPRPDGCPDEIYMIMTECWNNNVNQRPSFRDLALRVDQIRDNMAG

C[C@H](Nc1nc(Nc2cc(C3CC3)[nH]n2)c(F)cc1C#N)c1ccc(F)cc1
IC50 [1]: 3 nM
IC50 [2]: 183 nM
GI50 [3]: 170 nM
GI50 [4]: 1000 nM

CC(C)Oc1cc(Nc2nc(N[C@@H](C)c3ccc(F)cc3)c(C#N)cc2F)n[nH]1
IC50 [1]: 688 nM
IC50 [2]: 1740 nM

Cc1cc(Nc2nc(N[C@@H](C)c3ccc(F)cn3)c(C#N)cc2F)n[nH]1
clearance [5]: 7.4 mL/min/kg
half-life [6]: 3.6 h
bioavailability [7]: 100%
solubility [8]: 303 µM (≈ 108 µg/mL)
inhibition [9]: Active
inhibition in vivo at 10 mg/kg [10]: 54%
inhibition [11]: Active
inhibition in vivo at 5 mg/kg [12]: 54%
inhibition [13]: Active
concentration at 2 h [14]: 1100 ng/mL
concentration at 6 h [15]: 328 ng/mL
fraction unbound [16]: 0.053
Cp(f) [17]: 49 nM
microsomal CLint [18]: 5 µL/min/mg
clearance [19]: 4.8 mL/min/kg
half-life [20]: 2.2 h
Vd [21]: 0.84 L/kg
bioavailability [22]: 39%
IC50 [1]: < 3 nM
IC50 [2]: 7 nM
GI50 [3]: 36 nM
GI50 [4]: 1300 nM
IC50 [23]: < 1 nM
IC50 [24]: 3 nM
IC50 [25]: 15 nM
IC50 [26]: 82 nM
IC50 [27]: 215 nM
IC50 [28]: 224 nM
IC50 [29]: > 10000 nM
IC50 [30]: 276 nM

Cc1cc(Nc2nc(N[C@@H](C)c3ccc(F)cn3)c(C#N)cc2Cl)n[nH]1
solubility [8]: 100 µM (≈ 37.2 µg/mL)
microsomal CLint [18]: 5 µL/min/mg
clearance [19]: 2.3 mL/min/kg
half-life [20]: 2.7 h
Vd [21]: 0.52 L/kg
bioavailability [22]: 47%
IC50 [1]: < 3 nM
IC50 [2]: 21 nM
GI50 [3]: 40 nM
GI50 [4]: 430 nM

Cc1cc(Nc2nc(N[C@@H](C)c3ccc(F)cc3)c(C#N)cc2F)n[nH]1
solubility [8]: 13 µM (≈ 4.61 µg/mL)
GI50 [31]: 33 nM
microsomal CLint [18]: 17 µL/min/mg
clearance [19]: 7.5 mL/min/kg
half-life [20]: 5.7 h
Vd [21]: 2.6 L/kg
bioavailability [22]: 44%
IC50 [1]: < 3 nM
IC50 [2]: 9 nM
GI50 [3]: 24 nM
GI50 [4]: 350 nM

Source: ChEMBL document CHEMBL1772962, “In vitro and in vivo evaluation of 6-aminopyrazolyl-pyridine-3-carbonitriles as JAK2 kinase inhibitors” (Bioorg Med Chem Lett, 2011)
